Assay results reported in US20050070496A1, “Semi-solid formulations for the oral administration of taxoids” (Aventis Pharma S. A., priority 2003, published 2005).
Marks after values point to notes of the source that are not given here.

What was measured:
[1] = Solubility of taxoid of formula Ib in liquid excipients; type: physicochemical
Excerpt: After a first selection of proper excipients (in terms of safety and developability), the solubility of taxoids in the excipient was the first screening step for the choice of the excipient and the selection of the prototypes. Then, the prototypes (liquid or semi-solid) were manufactured, and characterized in terms of in vitro behavior in simulated GI media and chemical stability. Finally, the physical properties and stability of the semi-solid prototypes have been investigated.

[2] = Solubility in semi-solid excipients (at the melted state) and solid excipients
Excerpt: The solubility of taxoid of formula Ib at room temperature has been determined by X ray diffraction.

Work on `CC(=O)O[C@H]1C(=O)[C@]23C[C@H]2C[C@H]2OC[C@@]2(OC(C)=O)[C@H]3[C@H](OC(=O)c2ccccc2)[C@]2(O)C[C@H](OC(=O)[C@H](O)[C@@H](NC(=O)OC(C)(C)C)c3ccccc3)C(C)=C1C2(C)C` [taxoid of formula Ib] yielded a Solubility ([1]; in Capryol 90 (Polyethylene glycol monocaprylate)) of 281 mg/g, a Solubility ([1]; in Cremophor EL (POE hydrogenated castor oil)) of 94 mg/g and a Solubility ([1]; in Crossential O94 (Oleic acid)) of 37 mg/g. For the same compound, the Solubility ([1]; in Edenor C8 98-100 (Caprylic acid)) was 138 mg/g, the Solubility ([1]; in Ethanol) was 250 mg/g and the Solubility ([1]; in HPβ cyclodextrin) was 0.28 mg/g. The Solubility ([1]; in Labrafil M1944 CS (oleyl macrogol-6-glycerides)) was 52 mg/g, the Solubility ([1]; in Labrasol (Caprylocaproyl macrogol-8 glycerides)) was 244 mg/g and the Solubility ([1]; in Lauroglycol 129 (PG monolaurate)) was 129 mg/g. For the same compound, the Solubility ([1]; in Maisine 35-1 (Glyceryl linoleate)) was 129 mg/g, the Solubility ([1]; in Miglyol 812N (caprylic/capric triglyceride)) was 65 mg/g and the Solubility ([1]; in PEG 400 (polyethylene glycol 400)) was 121 mg/g. The Solubility ([1]; in PS 80 VG (POE monooleate)) was 144 mg/g, the Solubility ([1]; in PS 80 VG pH 6 (POE monooleate)) was 135 mg/g and the Solubility ([1]; in Peceol (Glyceryl monooleate)) was 106 mg/g. For the same compound, the Solubility ([1]; in Phosal 50 PG (Phosphatidylcholine ≧ 50% in propylene glycol)) was 27 mg/g, the Solubility ([1]; in Phosal 50 SA (Phosphatidylcholine 50 ± 3% in alcohol, safflower oil, glyceryl stearate, coconut oil and ascorbyl palmitate)) was 97 mg/g and the Solubility ([1]; in Phosal 75 SA (Phosphatidylcholine 75 ± 3% in alcohol, safflower oil, glyceryl stearate, coconut oil and ascorbyl palmitate)) was 122 mg/g. For the same compound, the Solubility ([1]; in Plurol diisostearic) was 23 mg/g, the Solubility ([1]; in Plurol oleic CC497 (Polyglyceryl 6 oleate)) was 42 mg/g and the Solubility ([1]; in Soybean oil (glycerides, linoleic acid 50-57%)) was 16 mg/g. The Solubility ([1]; in Transcutol (Diethylene glycol monoethyl ether)) was 197 mg/g, the Solubility ([2]; in Gelucire 44/14 (lauroyl macrogol-32 glycerides), excipient melted up to 70° C.) was 96 mg/g and the Solubility ([2]; in Imwitor 988 (Glyceryl mono-dicaprylate), semi-solid excipient melted up to 70° C.) was 283 mg/g. For the same compound, the Solubility ([2]; in Myrj 45 (POE stearate), excipient melted up to 70° C.) was 128 mg/g, the Solubility ([2]; in PEG 4000 (polyethylene glycol 1500), excipient melted up to 70° C.) was >50* mg/g and the Solubility ([2]; in Vitamin E TPGS (α-tocopherol PEG succinate), excipient melted up to 70° C.) was 73 mg/g.
